From patent US10736859B2, “Eutectic formulations of cyclobenzaprine hydrochloride and amitriptyline hydrochloride” (Tonix Pharma Holdings Limited, priority 2013, dated 2020)
Entries after “also recorded” stand apart in the source; their conditions may differ. Each block holds one compound with its values, some of them ahead of it.

How the values were obtained:
Type in all cases: physicochemical
[1] = DSC, FT-IR/ATR and XRPD compatibility of Cyclobenzaprine HCl with additional excipients, mixed (A) and milled (B) 1:1 mixtures (Example 2); settings: for Interactions between Cyclobenzaprine HCl and excipients, Mixture 1:1 (mixed): mixture A, mechanical mixing only; for Interactions between Cyclobenzaprine HCl and excipients, Mixture 1:1 (mixed) / Interactions between Cyclobenzaprine HCl and excipients, Mixture 1:1 (milled): DSC; for Interactions between Cyclobenzaprine HCl and excipients, Mixture 1:1 (milled): mixture B, ground in agate mortar
Procedure: As described above, thermal analytical techniques were further used to assess the compatibility of a drug product (tablet) containing Cyclobenzaprine HCl (API). The compatibility assessment was carried out between the API and additional excipients in a 1:1 ratio. The 1:1 API-excipient mixtures were formed in two different ways: first, by mixing only, and second, by strong milling in an agate mortar. The thermal behavior recorded in the two different mixtures were compared with those of the single components. On the basis of thermal events recorded for each component and for the mixtures, the analyses were carried out by investigating the meanings of the peaks recorded by differential scanning calorimetry (DSC) in mixtures between the API and the excipients. Furthermore, in order to define the nature of the interaction, the Fourier Transformate Infra Red Spectroscopy with Total Attenuated Reflectance (FT-IR/ATR) and X-ray powder diffraction (XRPD) of some samples (API, excipient, and mixed and milled mixtures) was carried out and compared.
Aliquots of API and each excipient were weighed in a ratio of 1:1 and ground in an agate mortar. Then, the homogeneous mixtures were analyzed. These sample mixtures were labeled “B”, while the mechanical-only mixtures were labeled “A.”
(§1) The DSC heating curves were obtained by TA 821 DSC Mettler instrument under the following conditions: • Heating rate: 10° C./min • Ambient: Nitrogen 30 mL/min • Sample holder: normal open aluminum pan • Temperature range: from 25° C. to 250° C. • Instrument calibration: Indium sample purity 99.999% Fourier Transformate Infra Red Spectroscopy with Total Attenuated Reflectance (FT-IR/ATR)
The FT-IR spectra were collected with a Perkin Elmer spectrum Two instrument with air as background and 4 cm^−1 resolution.
X-ray powder diffraction (XRPD) tests were performed with the ULTIMA IV instrument (Rigaku), laying the sample on a static sample holder. The X-ray focusing slit has a variable width, interlocked with the q value. The X-ray tube has a Copper target, with a current intensity of 40 mA and a voltage of 40 kV. Radiation was generated by the Cockcroft-Walton method, and was constituted by Kα1 (1.540562 Å) and Kα2 (1.544398 Å). The analytical conditions were: • Fixed Time; sampling width 0.02 deg, scanning rate 1.3 s/step, 2 q range 3.35 deg and sample holder; amorphous glass equiangular 9200/2G, 0.2 mm deep. The sample was pressed with a glass plate.

[2] = DSC compatibility of Amitriptyline HCl with excipients, 1:1 milled mixtures (Example 4); settings: Amitriptyline HCl + excipient 1:1, milled in agate mortar
Procedure: Thermal analytical techniques were used to assess the compatibility of the drug product amitriptyline HCl. The compatibility assessment was carried out between the API and the excipients in a 1:1 ratio. On the basis of thermal events recorded for each component and for the mixtures, the analyses were carried out by investigating the peaks recorded by DSC in mixtures between API and the excipients. Differences in thermal profiles between the single compound and the related mixtures were obtained after milling the products in an agate mortar.
DSC was performed substantially as described in Examples 1 and 2. The following raw materials were used: • Amitriptyline HCl • Sodium stearyl fumarate • Stearic acid • Glycerol dibehenate • Magnesium stearate • Pearlitol flash • Pearlitol 200 SO/Mannitol • Unipure DW/Com starch pregelatinized • Crospovidone-Kollidon CL • Silicon Colloidal/Aerosil 200 • Sodium phosphate dibasic • Sodium bicarbonate • Sodium carbonate • Sodium Phosphate dodecahydrate • Sodium Phosphate anhydrous.

[3] = DSC compatibility of Cyclobenzaprine HCl (API) with excipients, milled mixtures (Example 1); settings: for Excipient reactions with API, Mixture 1:1: Cyclobenzaprine HCl + excipient 1:1, ground in agate mortar; for Excipient reactions with API, Mixture in formulation ratio: Cyclobenzaprine HCl + excipient in formulation ratio
Procedure: Thermal analytical techniques were used to assess the compatibility of a drug product (tablet) containing Cyclobenzaprine HCl (API). The compatibility assessment was carried out between the API and a number of possible excipients in a 1:1 ratio. Based on the thermal events recorded for each component and for the mixtures, the analyses were carried out by investigating the peaks recorded by differential scanning calorimetry (DSC) in mixture between API and the excipients. Differences in thermal profiles between the single compound and the related mixture obtained after milling the products in an agate mortar were evaluated. Stability and compatibility also were also assessed on the final drug product after stress conditions at 40° C. and 50° C. for one month.
A “formulation ratio” mixture was made with the following composition: 2.40 mg Cyclobenzaprine HCl, 31.55 mg Mannitol and Maize starch, 2.00 Crospovidone, 0.50 mg colloidal silica, 0.050 mg Sodium Stearyl Fumarate, and 1.05 Potassium hydrogen phosphate.
Aliquots of API and each excipient were weighed in a ratio of 1:1 (unless specified otherwise) and ground in an agate mortar. The homogeneous mixtures then were analyzed.
as §1, with “with a” for “by”, “99.999%” for “99.999% Fourier Transformate Infra Red Spectroscopy with Total Attenuated Reflectance (FT-IR/ATR)”

[4] = listed as sodium phosphate anhydrous
[5] = listed as sodium phosphate dihydrate, Sodium phosphate dihydrate
[6] = listed as Sodium Stearyl fumarate, fumarate
[7] = listed as Trisodium Citrate anhydrous
[8] = listed as trisodium citrate dihydrate, citrate dihydrate

Compound: O=P([O-])([O-])O.[Na+].[Na+] [Di Sodium phosphate anhydrous]
Interactions between Cyclobenzaprine HCl and excipients, Mixture 1:1 (mixed) [1]: Low chemical | Interactions between Cyclobenzaprine HCl and excipients, Mixture 1:1 (mixed) [1, 4]: physical interaction | Interactions between Cyclobenzaprine HCl and excipients, Mixture 1:1 (milled) [1]: Low chemical | Interactions between Cyclobenzaprine HCl and excipients, Mixture 1:1 (milled) [1, 4]: physical interaction | Interactions between API and excipients, Mixture in formulation (1:1 ratio) ([2]; listed as Sodium phosphate anhydrous): No physical interaction

Compound: O.O.O=P([O-])([O-])O.[Na+].[Na+] [Di Sodium phosphate di hydrate, Di Sodium phosphate dihydrate]
Interactions between Cyclobenzaprine HCl and excipients, Mixture 1:1 (mixed) ([1]; Sodium phosphate dihydrate): Chemical | Interactions between Cyclobenzaprine HCl and excipients, Mixture 1:1 (mixed) [1, 5]: a physical interaction and partial solubilization | Interactions between Cyclobenzaprine HCl and excipients, Mixture 1:1 (milled) ([1]; Sodium phosphate dihydrate): Chemical | Interactions between Cyclobenzaprine HCl and excipients, Mixture 1:1 (milled) [1, 5]: physical interaction

Compound: O.O.O.O.O.O.O.O=P([O-])([O-])O.[Na+].[Na+] [Di Sodium phosphate heptahydrate]
Interactions between Cyclobenzaprine HCl and excipients, Mixture 1:1 (mixed) [1]: Chemical | Interactions between Cyclobenzaprine HCl and excipients, Mixture 1:1 (milled) [1]: Chemical

Interactions between API and excipients, Mixture in formulation (1:1 ratio) [2]: No interaction | Interactions between API and excipients, Mixture in formulation (1:1 ratio) ([2]; listed as glycerol dibehenate): small physical interaction
Compound: CCCCCCCCCCCCCCCCCCCCCC(=O)OCC(CO)OC(=O)CCCCCCCCCCCCCCCCCCCCC (centres unmarked) [Glycerol dibehenate]

Compound: O=P([O-])([O-])O.[K+].[K+] [Potassium phosphate dibasic, dipotassium hydrogen phosphate]
Excipient reactions with API, Mixture 1:1 [3]: Acid - base interaction | Excipient reactions with API, Mixture 1:1 ([3]; listed as Potassium phosphate bibasic): chemical interaction (acid-base) | Excipient reactions with API, Mixture in formulation ratio [3]: Low chemical | Excipient reactions with API, Mixture in formulation ratio ([3]; listed as K2HPO4): small interaction

Compound: O=C([O-])[O-].[Na+].[Na+] [Sodium carbonate]
Interactions between API and excipients, Mixture in formulation (1:1 ratio) [2]: small physical interaction; also recorded: No interaction

Compound: O=P([O-])([O-])O.[Na+].[Na+] [Sodium phosphate dibasic]
Interactions between API and excipients, Mixture in formulation (1:1 ratio) [2]: Physical interaction

Excipient reactions with API, Mixture 1:1 ([3]; fumarate): Physical interaction | Excipient reactions with API, Mixture 1:1 [3, 6]: physical interaction | Excipient reactions with API, Mixture in formulation ratio ([3]; fumarate): No interaction | Excipient reactions with API, Mixture in formulation ratio [3, 6]: small physical interaction | Interactions between API and excipients, Mixture in formulation (1:1 ratio) ([2]; fumarate): Physical interaction | Interactions between API and excipients, Mixture in formulation (1:1 ratio) [2, 6]: physical interaction
Compound: CCCCCCCCCCCCCCCCCCOC(=O)/C=C/C(=O)[O-].[Na+] [Sodium stearyl fumarate]

Interactions between Cyclobenzaprine HCl and excipients, Mixture 1:1 (mixed) [1]: Chemical | Interactions between Cyclobenzaprine HCl and excipients, Mixture 1:1 (milled) [1]: Chemical
Compound: OC[C@@H](O)[C@@H](O)[C@H](O)[C@@H](O)CO [Sorbitol]
Interactions between Cyclobenzaprine HCl and excipients, Mixture 1:1 (mixed) ([1]; listed as sorbitol): interaction was observed, due to the solubilization of API by sorbitol | Interactions between Cyclobenzaprine HCl and excipients, Mixture 1:1 (milled) ([1]; listed as sorbitol): interaction was observed, due to the solubilization of API by sorbitol

Compound: CCCCCCCCCCCCCCCCCC(=O)O [Stearic acid]
Interactions between API and excipients, Mixture in formulation (1:1 ratio) [2]: small physical interaction; also recorded: No interaction

Compound: O=C([O-])CC(O)(CC(=O)[O-])C(=O)[O-].[Na+].[Na+].[Na+] [Tri Sodium Citrate anhydrous, Trisodium citrate anhydrous]
Chemical acid-base reaction by FT-IR/ATR ([1]; mixture A 1:1 with Cyclobenzaprine HCl, room temperature, chlorohydrate band 3000-2000 cm-1): no chemical acid-base reaction had occurred | Interactions between Cyclobenzaprine HCl and excipients, Mixture 1:1 (mixed) [1]: Physical | Interactions between Cyclobenzaprine HCl and excipients, Mixture 1:1 (mixed) [1, 7]: physical complex melting at a lower temperature | Interactions between Cyclobenzaprine HCl and excipients, Mixture 1:1 (milled) [1]: Physical | Interactions between Cyclobenzaprine HCl and excipients, Mixture 1:1 (milled) [1, 7]: physical complex melting at lower temperature

Compound: O.O.O=C([O-])CC(O)(CC(=O)[O-])C(=O)[O-].[Na+].[Na+].[Na+] [Trisodium citrate dihydrate]
Interactions between Cyclobenzaprine HCl and excipients, Mixture 1:1 (mixed) ([1]; citrate dihydrate): Chemical | Interactions between Cyclobenzaprine HCl and excipients, Mixture 1:1 (mixed) [1, 8]: physico-chemical interaction | Interactions between Cyclobenzaprine HCl and excipients, Mixture 1:1 (milled) ([1]; citrate dihydrate): Chemical | Interactions between Cyclobenzaprine HCl and excipients, Mixture 1:1 (milled) [1, 8]: physico-chemical interaction

Compound: Magnesium stearate
Interactions between API and excipients, Mixture in formulation (1:1 ratio) [2]: small physical interaction

Compound: Sodium Phosphate dodecahydrate
Interactions between API and excipients, Mixture in formulation (1:1 ratio) [2]: physical/chemical interaction
